Where two headings read alike, the source gives them in different places.
Assays:
Assay type in all cases: cell-based
[1] = system: E. coli; experiment: Chequerboard assay, FIC and synergy analysis; conditions: for MIC: Escherichia coli
Description: (§1) Chlorhexidine gluconate (CHG) and ethyl lauroyl arginate hydrochloride (LAE) were analyzed by chequerboard assay with each test organism to determine potential additive, synergistic, and antagonistic activity. The test organisms S. aureus, P. aeruginosa, and E. coli were tested at ranges of chlorhexidine gluconate (0.122-15.625 μg/mL, 1.25-160 μg/mL, and 0.125-16 μg/mL, respectively) and ethyl lauroyl arginate hydrochloride (LAE) (0.117-15 μg/mL, 0.4688-60 μg/mL, and 0.2344-30 μg/mL, respectively). FIC was calculated by the following Equation 2: […]

[2] = system: P. aeruginosa; experiment: Chequerboard assay, FIC and synergy analysis; conditions: for MIC: Pseudomonas aeruginosa
Description: as §1

[3] = system: S. aureus; experiment: Chequerboard assay, FIC and synergy analysis; conditions: for MIC: Staphylococcus aureus
Description: as §1

[4] = system: S. aureus (ATCC 6538); experiment: Minimum inhibitory concentration / growth inhibition by serial 2-fold dilution; conditions: for Average Growth Inhibition (%): average of triplicate
Description: (§2) The minimal inhibitory concentration (MIC, the minimum inhibitory concentration required for 90% growth reduction) of ethyl lauroyl arginate hydrochloride was determined against S. aureus (ATCC 6538), P. aeruginosa (ATCC 15442), and E. coli (ATCC BAA 1427) by serial 2-fold dilution experiments. A solution of chlorhexidine (0.025% w/w) was used as a positive control and comparator.

[5] = system: P. aeruginosa (ATCC 15442); experiment: as above; conditions: for Average Growth Inhibition (%): average of triplicate
Description: as §2

[6] = system: E. coli (ATCC BAA 1427); experiment: as above; conditions: for Average Growth Inhibition (%): average of triplicate
Description: as §2

[7] = system: S. aureus (ATCC 6538); experiment: Minimal bactericidal concentration by serial 2-fold dilution
Description: (§3) The minimal bactericidal concentration (MBC) of ethyl lauroyl arginate hydrochloride (LAE) was determined against S. aureus (ATCC 6538), P. aeruginosa (ATCC 15442), and E. coli (ATCC BAA 1427) by serial 2-fold dilution experiments. A solution of chlorhexidine (0.025% w/w) was used as a positive control and comparator.

[8] = system: P. aeruginosa (ATCC 15442); experiment: as above
Description: as §3

[9] = system: E. coli (ATCC BAA 1427); experiment: as above
Description: as §3

[10] = read-out: MIC of CHG in Presence of LAE
[11] = 250 μg/mL (0.025% w/w), positive control
[12] = 250 μg/mL (0.025% w/w), positive control, listed as chlorhexidine
[13] = inhibited greater than 90% growth
[14] = 0.46875 μg/mL, average over triplicate
[15] = 0.9375 μg/mL, average over triplicate
[16] = 1.875 μg/mL, average over triplicate
[17] = 3.75 μg/mL, average over triplicate
[18] = 7.5 μg/mL, average over triplicate
[19] = 15 μg/mL, average over triplicate
[20] = 30 μg/mL, average over triplicate
[21] = 60 μg/mL, average over triplicate
[22] = defined as having less than 500 CFU/mL, hydrochloride

N=C(NCCCCCCNC(=N)NC(=N)Nc1ccc(Cl)cc1)NC(=N)Nc1ccc(Cl)cc1 [Chlorhexidine gluconate, reference compound]
MIC ([1]; read-out: MIC of CHG Alone): 8 µg/mL
MIC [1, 10]: 4 µg/mL
MIC ([2]; read-out: MIC of CHG Alone): 40 µg/mL
MIC [2, 10]: 10 µg/mL
MIC ([3]; read-out: MIC of CHG Alone): 1.95 µg/mL
MIC [3, 10]: 0.977 µg/mL
inhibition at 250 µg/mL ([4]; Staphylococcus aureus, ATCC6538, read-out: Average Growth Inhibition (%)): 121%
inhibition at 250 µg/mL ([5]; Pseudomonas aeruginosa, ATCC15442, read-out: Average Growth Inhibition (%)): 81%
inhibition at 250 µg/mL ([6]; Escherichia coli, BAA1427, 250 μg/mL (0.025% w/w), positive control): 63%
CFU/mL [7, 11]: 0 CFU/mL
Number of Colonies [7, 11]: 0
Number of Colonies [7, 12]: no colonies
CFU/mL [8, 11]: 0 CFU/mL
Number of Colonies [8, 11]: 0
Number of Colonies [8, 12]: no colonies
CFU/mL [9, 11]: 0 CFU/mL
Number of Colonies [9, 11]: 0
Number of Colonies [9, 12]: no colonies

CCCCCCCCCCCC(=O)N[C@@H](CCCN=C(N)N)C(=O)OCC.Cl [ethyl lauroyl arginate hydrochloride]
MIC of LAE Alone ([1]; alone): 15 µg/mL
MIC of LAE in Presence of CHG ([1]; in presence of CHG): 3.75 µg/mL
MIC of LAE Alone ([2]; alone): 30 µg/mL
MIC of LAE in Presence of CHG ([2]; in presence of CHG): 7.5 µg/mL
MIC of LAE Alone ([3]; alone): 3.75 µg/mL
MIC of LAE in Presence of CHG ([3]; in presence of CHG): 1.875 µg/mL
Average Growth Inhibition (%) ([4]; 0.46875 μg/mL): 7%
Average Growth Inhibition (%) ([4]; 0.9375 μg/mL): -1%
Average Growth Inhibition (%) ([4]; 1.875 μg/mL): -17%
Average Growth Inhibition (%) ([4]; 3.75 μg/mL): 100%
Average Growth Inhibition (%) ([4]; 7.5 μg/mL): 101%
Average Growth Inhibition (%) ([4]; 15 μg/mL): 101%
Average Growth Inhibition (%) ([4]; 30 μg/mL): 97%
Average Growth Inhibition (%) ([4]; 60 μg/mL): 93%
MIC [4, 13]: 3.75 µg/mL
Average Growth Inhibition (%) ([5]; 0.46875 μg/mL): 2%
Average Growth Inhibition (%) ([5]; 0.9375 μg/mL): 2%
Average Growth Inhibition (%) ([5]; 1.875 μg/mL): 2%
Average Growth Inhibition (%) ([5]; 3.75 μg/mL): 4%
Average Growth Inhibition (%) ([5]; 7.5 μg/mL): 5%
Average Growth Inhibition (%) ([5]; 15 μg/mL): 2%
Average Growth Inhibition (%) ([5]; 30 μg/mL): 100%
Average Growth Inhibition (%) ([5]; 60 μg/mL): 99%
MIC [5, 13]: 30 µg/mL
Average Growth Inhibition (%) ([6]; 0.46875 μg/mL): 3%
Average Growth Inhibition (%) ([6]; 0.9375 μg/mL): 6%
Average Growth Inhibition (%) ([6]; 1.875 μg/mL): 5%
Average Growth Inhibition (%) ([6]; 3.75 μg/mL): 4%
Average Growth Inhibition (%) ([6]; 7.5 μg/mL): 4%
Average Growth Inhibition (%) ([6]; 15 μg/mL): 100%
Average Growth Inhibition (%) ([6]; 30 μg/mL): 100%
Average Growth Inhibition (%) ([6]; 60 μg/mL): 99%
CFU/mL ([7]; 0.46875 μg/mL): Lawn
Number of Colonies [7, 14]: Lawn (‘Lawn’ indicates too many colonies to accurately count (e.g., greater than 250 colonies on an agar plate))
CFU/mL ([7]; 0.9375 μg/mL): Lawn
Number of Colonies [7, 15]: Lawn (‘Lawn’ indicates too many colonies to accurately count (e.g., greater than 250 colonies on an agar plate))
CFU/mL ([7]; 1.875 μg/mL): Lawn
Number of Colonies [7, 16]: Lawn (‘Lawn’ indicates too many colonies to accurately count (e.g., greater than 250 colonies on an agar plate))
CFU/mL ([7]; 3.75 μg/mL): 500 CFU/mL
Number of Colonies [7, 17]: 5
CFU/mL ([7]; 7.5 μg/mL): 0 CFU/mL
Number of Colonies [7, 18]: 0
CFU/mL ([7]; 15 μg/mL): 0 CFU/mL
Number of Colonies [7, 19]: 0
CFU/mL ([7]; 30 μg/mL): 0 CFU/mL
Number of Colonies [7, 20]: 0
CFU/mL ([7]; 60 μg/mL): 0 CFU/mL
Number of Colonies [7, 21]: 0
MBC [7, 22]: 3.75 µg/mL
CFU/mL ([8]; 0.46875 μg/mL): Lawn
Number of Colonies [8, 14]: Lawn (‘Lawn’ indicates too many colonies to accurately count (e.g., greater than 250 colonies on an agar plate))
CFU/mL ([8]; 0.9375 μg/mL): Lawn
Number of Colonies [8, 15]: Lawn (‘Lawn’ indicates too many colonies to accurately count (e.g., greater than 250 colonies on an agar plate))
CFU/mL ([8]; 1.875 μg/mL): Lawn
Number of Colonies [8, 16]: Lawn (‘Lawn’ indicates too many colonies to accurately count (e.g., greater than 250 colonies on an agar plate))
CFU/mL ([8]; 3.75 μg/mL): Lawn
Number of Colonies [8, 17]: Lawn (‘Lawn’ indicates too many colonies to accurately count (e.g., greater than 250 colonies on an agar plate))
CFU/mL ([8]; 7.5 μg/mL): Lawn
Number of Colonies [8, 18]: Lawn (‘Lawn’ indicates too many colonies to accurately count (e.g., greater than 250 colonies on an agar plate))
CFU/mL ([8]; 15 μg/mL): Lawn
Number of Colonies [8, 19]: Lawn (‘Lawn’ indicates too many colonies to accurately count (e.g., greater than 250 colonies on an agar plate))
CFU/mL ([8]; 30 μg/mL): 0 CFU/mL
Number of Colonies [8, 20]: 0
CFU/mL ([8]; 60 μg/mL): 0 CFU/mL
Number of Colonies [8, 21]: 0
MBC [8, 22]: 30 µg/mL
CFU/mL ([9]; 0.46875 μg/mL): Lawn
Number of Colonies [9, 14]: Lawn (‘Lawn’ indicates too many colonies to accurately count (e.g., greater than 250 colonies on an agar plate))
CFU/mL ([9]; 0.9375 μg/mL): Lawn
Number of Colonies [9, 15]: Lawn (‘Lawn’ indicates too many colonies to accurately count (e.g., greater than 250 colonies on an agar plate))
CFU/mL ([9]; 1.875 μg/mL): Lawn
Number of Colonies [9, 16]: Lawn (‘Lawn’ indicates too many colonies to accurately count (e.g., greater than 250 colonies on an agar plate))
CFU/mL ([9]; 3.75 μg/mL): Lawn
Number of Colonies [9, 17]: Lawn (‘Lawn’ indicates too many colonies to accurately count (e.g., greater than 250 colonies on an agar plate))
CFU/mL ([9]; 7.5 μg/mL): Lawn
Number of Colonies [9, 18]: Lawn (‘Lawn’ indicates too many colonies to accurately count (e.g., greater than 250 colonies on an agar plate))
CFU/mL ([9]; 15 μg/mL): 0 CFU/mL
Number of Colonies [9, 19]: 0
CFU/mL ([9]; 30 μg/mL): 0 CFU/mL
Number of Colonies [9, 20]: 0
CFU/mL ([9]; 60 μg/mL): 0 CFU/mL
Number of Colonies [9, 21]: 0
MBC [9, 22]: 15 µg/mL
